Results on six molecules are retold here after patent EP3808411A1, “COSMETIC COMPOSITIONS AND USE THEREOF” (Mesoestetic Pharma Group, S.L., priority 2019, dated 2020).

Entries after “also recorded” stand apart in the source; their conditions may differ.

One test concerns human dermal fibroblasts. The test is described as follows: β-galactosidase staining in a model of UVB-induced senescence. Format: cell-based. As for the experimental part:
(§1) In order to verify the action of the shikimic acid as a protector against the process of cellular senescence induced by Ultraviolet Type-B (UVB) damage, the shikimic acid was tested in a model of UVB-induced senescence in human dermal fibroblasts. In this model, two days after being plated, the cells are irradiated with UVB. After three days, the cells are re-irradiated with UVB. Two days after the second irradiation, the cells are processed for analysis. The shikimic acid is incubated with the cells from 24 h before the first irradiation until the day they are analysed. To assess whether cells are senescent or not, two markers are used. On the one hand, β-galactosidase staining is carried out, which stains the senescent cells blue, since they have an abnormal lysosomal activity at pH 6. Furthermore, the expression of the HAS2 gene is quantified by means of the qPCR technique.

Another test relates to HAS2 gene. In words: HAS2 gene expression by qPCR in a model of UVB-induced senescence. The test is classed as cell-based, human. How it is done: as §1
(In general: Quantitative PCR measures a nucleic acid by following its amplification.)

Take `N#CC(=Cc1ccc(-c2cc(Cl)ccc2Cl)o1)C(=O)Nc1cccc2ncccc12` [AGK2]: in the test with human dermal fibroblasts (UVB-irradiated cells, 10, 25, 50 mM shikimic acid + AGK2 2 µM, Figures 5 and 6), the “effect of inhibitor on the protective role of shikimic acid on senescence” value is “do not reverse the protective effect of shikimic acid on senescence”.

As for `NC(=O)C1CCCc2c1[nH]c1ccc(Cl)cc21` (centres unmarked) [EX-527], the “effect of inhibitor on the protective role of shikimic acid on senescence (β-galactosidase staining)” value with human dermal fibroblasts (UVB-irradiated cells, 10, 25, 50 mM shikimic acid + EX-527 1 µM, Figure 3) is given as “capable of reversing the effect of shikimic acid on senescence”. The “HAS2 gene expression with shikimic acid + inhibitor” value in the test on HAS2 gene (UVB-irradiated cells, shikimic acid (SX) + EX-527 1 µM versus SX only, Figure 4) is reported as “reversed to a lesser extent”.

As for `O=C(Nc1ccc(O)c(C(=O)O)c1)c1cccc(NC(=O)c2ccco2)c1` [OSS128167], the “effect of inhibitor on the protective role of shikimic acid on senescence” value in the test on human dermal fibroblasts (UVB-irradiated cells, 10, 25, 50 mM shikimic acid + OSS128167 200 µM, Figures 7 and 8) was “do not reverse the protective effect of shikimic acid on senescence”.

With `COC1=C(OC)C(=O)C(CCCCCCCCCCO)=C(C)C1=O` [idebenone], in the test on human dermal fibroblasts (UVB-irradiated cells treated with 2.5, 5, 10 µM idebenone, Figure 9), the “protection against UVB damage-induced senescence (β-galactosidase staining)” value is “neither of these two comparative compounds is capable of protecting against UVB damage-induced senescence”.

For the molecule `O=C(O)CCCCC1CCSS1` (centres unmarked) [lipoic acid], in the test with human dermal fibroblasts (UVB-irradiated cells treated with 50, 100, 200 µM lipoic acid, Figure 10), the “protection against UVB damage-induced senescence (β-galactosidase staining)” value is recorded as “neither of these two comparative compounds is capable of protecting against UVB damage-induced senescence”.

With `O=C(O)C1=CC(O)C(O)C(O)C1` (centres unmarked) [shikimic acid, 3,4,5-trihydroxy-1-cyclohexene-1-carboxylic acid], the “senescent cells (β-galactosidase staining)” value in the test on human dermal fibroblasts (UVB-irradiated human dermal fibroblasts treated with 10, 25, 50 mM shikimic acid, Figure 1) is given as “this increase in senescence does not occur; also recorded: more effective than other compounds such as idebenone or lipoic acid”. In addition, in the test with HAS2 gene (UVB-irradiated human dermal fibroblasts treated with 10, 25, 50 mM shikimic acid, Figure 2), the HAS2 gene expression result is on record as “this decrease is reversed in gene expression”.
